The numbers were not newly measured in article PMC5594551, “Heterogeneous drug penetrance of veliparib and carboplatin measured in triple negative breast tumors” (Breast Cancer Research : BCR, 2017), which cites them from elsewhere.

For series [1], the system named is HCC70. Conditions: ref [24]; cited from earlier work.
Series [2] deals with MDA-MB-436. Conditions: MDA-MB-436, BRCA1-mutated; ref [24]; cited from earlier work.

As for `O=C(c1cc(Cc2n[nH]c(=O)c3ccccc23)ccc1F)N1CCN(C(=O)C2CC2)CC1` [olaparib], the values for the Sensitivity in vitro entry in series [1] and in series [2] were “sensitive” and “sensitivity”, respectively.
